{"source": "patent US8518882B2", "about": "“Methods and compositions for ameliorating or inhibiting decline in memory or intelligence or improving same” (priority 1998, dated 2013)", "key": {"PC12 cells [1]": {"tested_on": "PC12 cells", "assay": "Uptake of uridine into PC12 cells", "format": "cell-based"}, "PC12 cells [2]": {"tested_on": "PC12 cells", "assay": "Intracellular UTP and CTP levels in PC12 cells by HPLC", "format": "cell-based", "details": "2 days with NGF; uridine 50 μM, UTP 100 μM, cytidine 50 μM", "experimental": "(§1) Brain tissue or cells was dissolved in methanol/chloroform (1:2 vol/vol), centrifuged, and the aqueous phase was dried under vacuum, resuspended in 100-200 μL water and separated by HPLC on an ion-exchange column (Alltech Hypersil APS-2, 5 μM, 250×4.6 mm). CDP-choline was eluted with a linear gradient of NaH2PO4 buffers A (1.75 mM NaH2PO4, pH 2.9) and B (500 mM, pH 4.5), which allowed resolution of CDP-choline from closely co-eluting substances such as UMP over 40 min. The retention time for CDP-choline was 9.5 min. Individual nucleotide peaks were detected by UV absorption at […], and were identified by comparison with the positions of authentic standards, as well as by the addition of nucleotide standards to selected samples.\nLevels of intracellular UTP and CTP were analyzed by HPLC as described for Example 5, except that 5 mM NaH2PO4, pH 2.65 was used as buffer A."}, "PC12 cells [3]": {"tested_on": "PC12 cells", "assay": "NGF-induced neurite outgrowth, branching and length in PC12 cells", "format": "cell-based", "experimental": "(§2) PC12 cells were maintained in Minimal Essential Medium (MEM; Invitrogen, Carlsbad, Calif.) supplemented with 10% fetal bovine serum (FBS) at 37° C. Experimental incubations were for 2 or 4 days in medium containing 50 ng/ml mouse 2.5 S (2.5 subunit) NGF and 1% FBS, with or without test compounds. NGF and FBS were obtained from Invitrogen.\nPC12 cells were sparsely plated on collagen-coated 60 mm culture dishes in MEM containing 1% fetal bovine serum. […] All treatments were performed 24 h after plating. At the end of the treatment period, images were obtained with a phase-contrast Zeiss Axioplan 2 microscope, using OpenLab software. Six digital images were captured for each dish, for a total of 18 to 24 images per treatment group Approximately 300 cells were quantified for each treatment group for each experiment. Experiments were performed in triplicate. Quantification of neurites, including neurite branching and neurite length, was performed by one more researchers blinded to experimental groups Neurite length was measured using the public domain NIH software “Image J.” Processes longer than the diameter of the cell body were counted as neurites. Only process-bearing cells were analyzed."}, "IP signaling": {"tested_on": "IP signaling", "assay": "PI turnover / inositol phosphate formation in NGF-differentiated PC12 cells", "format": "cell-based", "details": "for Formation of IP: NGF-differentiated PC12 cells, 1 hour, UTP 100 μM (p<0.05), uridine 50 μM (p<0.01)", "experimental": "Analysis of PI turnover was performed as described by (Nitsch R M et al, J Neurochem 69: 704-12, 1997). Briefly, cells were labeled metabolically for 36 h with 1.25 microCurie (μCi)/dish of myo-[2-^3H]inositol (17.0 Curie/mmol; Amersham Biosciences) in serum-free MEM, washed twice with Hank's balanced salt solution (HBSS), and treated for 15 min with 10 mM lithium chloride in HBSS. Drugs were added in the presence of 10 mM lithium for 60 min at 37° C. Cells were lysed with ice-cold methanol, and lipids were removed by extraction with chloroform/methanol/water (2:2:1 by volume). Labeled water-soluble inositol phosphates were separated from free [^3H]inositol by ion-exchange chromatography, using AG 1-X8 columns (Bio-Rad), and 1M ammonium formate and 0.1M formic acid as eluent. Radioactivity was quantified by liquid scintillation spectrometry."}, "PC12 cells [4]": {"tested_on": "PC12 cells", "assay": "Intracellular CDP-choline levels in PC12 cells", "format": "cell-based", "details": "after 50 minutes", "experimental": "as §1, §2"}, "[5]": {"assay": "Conversion of uridine to cytidine in plasma and brain of gerbils", "format": "in vivo", "details": "250 mg/kg uridine orally, 60 min"}, "[6]": {"tested_on": "P2Y2, P2Y4 and P2Y6 receptors", "assay": "P2Y receptor expression in NGF-differentiated PC12 cells", "format": "cell-based", "details": "compared with cells exposed to NGF alone", "experimental": "Western blots utilized rabbit anti-P2Y2, anti-P2Y4 (both from Calbiochem); or rabbit anti-P2Y6 (Novus Biologicals, Littleton, Colo.).\nPC 12 cells were treated as described above, except they were grown on 12 mm glass cover slips (A Daigger & Co., Vernon Hills, Ill.) coated with collagen. Proteins were visualized using immunofluorescence. Briefly, the cells were fixed with 4% paraformaldehyde, permeabilized with 0.25% Triton X-100, blocked in 10% normal goat serum, and incubated overnight in the appropriate antibodies (mouse anti-NF-70, and either rabbit anti-P2Y2, rabbit anti-P2Y4 or rabbit anti-P2Y6). For P2Y2 and P2Y4 visualization, control cultures were incubated with primary antibody plus a control antigen in order to ensure that the immuno-staining would be specific. Control antigen was not available for the P2Y6 receptor. Cells were then incubated in fluorochrome-conjugated secondary antibodies for 1 hour (goat anti-rabbit ALEXA 488 and goat anti-mouse ALEXA 568; Molecular Probes, Eugene, Oreg.) and mounted on glass slides with mounting media with or without DAPI (Vector Laboratories, Burlingame, Calif.). Control antigens provided with the primary antibodies were used to ensure that immuno-staining was specific. Digital images were obtained on a Zeiss (Oberkochen, Germany) Axioplan microscope with OpenLab software, using a Zeiss Plan-Neofluor 40× oil-immersion objective."}, "NF-M": {"tested_on": "NF-M", "assay": "NF-M levels in PC12 cells (Western blotting)", "format": "cell-based", "experimental": "as §2\n(§3) Equal amounts of protein (40 μg protein/lane) were loaded for sodium dodecyl sulfate-polyacrylamide gel electrophoresis (4-15% SDS PAGE; Bio-Rad, Hercules, Calif.). Prior to gel electrophoresis, bromphenol blue solution (0.07%) was added to each sample. Proteins were separated, transferred onto polyvinylidene difluoride (PVDF) membranes (Immobilon-P, Millipore), and blocked with 5% bovine serum albumin (Tris-buffered saline/0.15% Tween 20) for 1 h. After 3 10 min rinses in Tris-buffered saline (TBST), blots were incubated in TBST with various antibodies against the proteins of interest, including NF-70, NF-M (1: 2000, 1: 5000, respectively; Calbiochem, La Jolla, Calif.) at 4° C. overnight on an orbital shaker. […] Films were digitized using a Supervista S-12 scanner with a transparency adapter (UMAX Technologies, Freemont, Calif.). Analysis was performed using the public domain NIH Image program (NIH V.1.61)."}, "NF-70": {"tested_on": "NF-70", "assay": "NF-70 levels in PC12 cells (Western blotting)", "format": "cell-based", "experimental": "as §2, §3"}}}
{"smiles": "Cc1ccc(C(=O)Nc2ccc(S(=O)(=O)O)c3cc(S(=O)(=O)O)cc(S(=O)(=O)O)c23)cc1NC(=O)c1cccc(NC(=O)Nc2cccc(C(=O)Nc3cc(C(=O)Nc4ccc(S(=O)(=O)O)c5cc(S(=O)(=O)O)cc(S(=O)(=O)O)c45)ccc3C)c2)c1", "note": "[suramin]", "values": [{"measurement": "Inhibition of uptake of uridine into PC12 cells", "setting": "PC12 cells [1]", "result": "None of the P2Y receptor antagonists inhibited the uptake of uridine"}]}
{"smiles": "Nc1c(S(=O)(=O)O)cc(Nc2ccc(Nc3nc(Cl)nc(Nc4cccc(S(=O)(=O)O)c4)n3)c(S(=O)(=O)O)c2)c2c1C(=O)c1ccccc1C2=O", "note": "[RB-2, reactive blue 2]", "values": [{"measurement": "Inhibition of uptake of uridine into PC12 cells", "setting": "PC12 cells [1]", "result": "None of the P2Y receptor antagonists inhibited the uptake of uridine"}]}
{"smiles": "Nc1ccn([C@@H]2O[C@H](CO)[C@@H](O)[C@H]2O)c(=O)n1", "note": "[cytidine, reference compound]", "values": [{"measurement": "Intracellular CTP levels", "setting": "PC12 cells [2]", "result": "did not significantly affect"}, {"measurement": "Intracellular UTP levels", "setting": "PC12 cells [2]", "result": "did not significantly affect"}, {"measurement": "Neurite outgrowth", "setting": "PC12 cells [3]; NGF-exposed cells, cytidine", "result": "had no effect on neurite outgrowth"}]}
{"smiles": "O=c1ccn([C@@H]2O[C@H](COP(=O)(O)OP(=O)(O)OP(=O)(O)O)[C@@H](O)[C@H]2O)c(=O)[nH]1", "note": "[UTP, uridine-5′-triphosphate]", "values": [{"measurement": "Intracellular CTP levels", "setting": "PC12 cells [2]", "result": "did not significantly affect"}, {"measurement": "Intracellular UTP levels", "setting": "PC12 cells [2]", "result": "did not significantly affect"}, {"measurement": "Neurite outgrowth", "setting": "PC12 cells [3]; with NGF, 10 and 50 μM, 4 days, vs NGF only", "result": "significantly (p<0.01) enhanced"}, {"measurement": "Formation of IP", "setting": "IP signaling", "result": "significantly increased"}]}
{"smiles": "O=c1ccn([C@@H]2O[C@H](CO)[C@@H](O)[C@H]2O)c(=O)[nH]1", "note": "[uridine]", "values": [{"measurement": "Intracellular CDP-choline levels", "setting": "PC12 cells [4]", "result": "statistically significant increase"}, {"measurement": "Conversion to cytidine in brain versus plasma", "setting": "[5]", "result": "more efficiently converted to cytidine than in plasma"}, {"measurement": "Expression of P2Y2, P2Y4 and P2Y6 receptors", "setting": "[6]", "result": "did not affect the expression"}, {"measurement": "Intracellular CTP levels", "setting": "PC12 cells [2]", "result": "significantly (p<0.05) increased"}, {"measurement": "Intracellular UTP levels", "setting": "PC12 cells [2]", "result": "significantly (p<0.05) increased"}, {"measurement": "NF-M expression", "setting": "NF-M; NGF plus 50 μM, 4 days, vs NGF only, p<0.001", "result": "increased"}, {"measurement": "NF-M level", "setting": "NF-M; absence of NGF", "result": "had no effect"}, {"measurement": "Average neurite length", "setting": "PC12 cells [3]; NGF-differentiated cells", "result": "did not significantly affect"}, {"measurement": "Production of neurites", "setting": "PC12 cells [3]; absence of NGF, 50 μM, 2 or 4 days", "result": "did not result in the production of neurites"}, {"measurement": "Number of neurite branch points per cell", "setting": "PC12 cells [3]; with NGF, 50 μM, 4 days", "result": "significantly (p<0.01) increased"}, {"measurement": "Number of neurites per cell", "setting": "PC12 cells [3]; with NGF, 2-day treatment or lower concentrations (10, 25 μM)", "result": "had no effect"}, {"measurement": "NF-70 expression", "setting": "NF-70; NGF plus 50 μM, 4 days, vs NGF only, p<0.01", "result": "increased"}, {"measurement": "NF-70 level", "setting": "NF-70; absence of NGF", "result": "had no effect"}, {"measurement": "Formation of IP", "setting": "IP signaling", "result": "significantly increased"}]}
{"smiles": "Cc1nc(N=Nc2ccc(S(=O)(=O)O)cc2S(=O)(=O)O)c(COP(=O)(O)O)c(C=O)c1O", "note": "[PPADS, pyridoxal-phosphate-6-azophenyl-2′,4′ disulfonic acid, reference compound]", "values": [{"measurement": "Block of stimulation of IP signaling by UTP", "setting": "IP signaling; PPADS 100 μM", "result": "significantly (p<0.05) blocked"}, {"measurement": "Inhibition of uptake of uridine into PC12 cells", "setting": "PC12 cells [1]", "result": "None of the P2Y receptor antagonists inhibited the uptake of uridine"}]}
